Measurements: patent US6511979B1, “Methods for treating conditions modulated by lactosylceramide” (Johns Hopkins University, priority 1998, dated 2003)
Entries after “also recorded” stand apart in the source; their conditions may differ.

Tests used:
[1] = test system: vascular cells; details: reported in literature; cited from earlier work
[2] = target: T1, GlcT-1 (Homo sapiens, UniProt Q16739); details: reported in literature; cited from earlier work
T1 sequence (Q16739 1-394): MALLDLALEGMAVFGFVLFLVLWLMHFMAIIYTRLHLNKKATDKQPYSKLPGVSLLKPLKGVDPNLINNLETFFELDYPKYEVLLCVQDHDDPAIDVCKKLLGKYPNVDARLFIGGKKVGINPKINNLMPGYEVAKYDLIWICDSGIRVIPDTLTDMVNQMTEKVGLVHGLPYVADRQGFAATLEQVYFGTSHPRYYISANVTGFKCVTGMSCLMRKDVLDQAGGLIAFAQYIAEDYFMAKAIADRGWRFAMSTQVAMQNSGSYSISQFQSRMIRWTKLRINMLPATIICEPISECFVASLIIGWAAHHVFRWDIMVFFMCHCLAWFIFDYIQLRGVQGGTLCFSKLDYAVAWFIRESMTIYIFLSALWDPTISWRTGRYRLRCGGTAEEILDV

[3] = test system: GalT-2; test: GalT-2 activity assay (standard in vitro GalT-2 assay / GalT-2 enzyme assay); assay type: cell-based
Source text: Preferred in vitro detection assays according to the present invention involve one or more steps associated with LacCer-related pathways. Such assays include the following steps 1) through 4):
1) culturing a population of LacCer-responsive cells with LacCer;
2) adding a known or candidate GalT-2 enhancing compound to the cells;
3) measuring activity of a cell molecule or function in the LacCer-related pathway; and
4) determining the effect of the known or candidate GalT-2 enhancing compound on the cell, e.g., by measuring activity of the cell molecule or function. Typically, the cell function will be one or more of cell proliferation, cell adhesion or expression of specified surface proteins on the cells. Examples of cell molecules include LacCer-responsive enzymes as specified below.
That assay can effectively measure the capacity of the GalT-2 enhancing compound to promote GalT-2 activity. References herein to a “standard in vitro GalT-2 assay” or other similar phrase refers to the above protocol of steps 1) through 4) when the specified cell molecule measured in step 3) above is GalT-2. As described in more detail below, other in vitro assays of the invention measure specified cell molecules in the LacCer-related steps or pathways. The in vitro assays of the present invention can be conducted with nearly any population of cells responsive to LacCer as provided below. […]

[4] = test system: LacCer-responsive cells; test: cell proliferation in LacCer-responsive cells; assay type: cell-based
Description: Preferably, the GalT-2 enhancing compound promotes cell proliferation by at least 10 to 25%, preferably at least about 50%, relative to a suitable control assay. In such an assay, between about 0.1 to 100 μM, preferably between about 1 to 50 μM of a desired GalT-2 enhancing compound is used. Exemplary cell proliferation assays include counting viable cells and monitoring activity of specified citric acid cycle enzymes such as lactate dehydrogenase. A preferred assay measures incorporation of one or more detectably-labeled nucleosides into DNA, e.g., by:
a) culturing suitable cells in medium and adding 1) a candidate GalT-2 enhancing compound and 2) a radiolabeled nucleoside such as ^3H-thymidine typically in an amount between about 0.1 to 100 μCi;
b) incubating the cells, e.g., for about 6-24 hours, and typically followed by washing; and
The measurement can be achieved by several methods including trichloroacetic acid (TCA) precipitation of labeled DNA on filters followed by scintillation counting. See e.g., Chatterjee, S., Biochem. Biophys. Res Comm. (1991) 181:554; Chatterjee, S. et al. (1982) Eur. J. Biochem. 120:435 for disclosure relating to this assay.
References herein to a “standard in vitro cell proliferation assay” or other similar phrase refer to an assay that includes the above steps a) through c). […]

[5] = test system: LacCer-responsive cells; test: cell adhesion in LacCer-responsive cells; assay type: cell-based
Description: Preferably, the GalT-2 enhancing compound increases cell adhesion by at least 25%, preferably at least 50% or more relative to a suitable control assay. In such an assay, between about 0.1 to 100 μM, preferably between about 1 to 50 μM of a desired GalT-2 enhancing compound is used. For example, a preferred cell adhesion assay includes the following steps:
a) labeling a first population of immune cells, preferably certain leukocytes, with a detectable label which can be a chromatic, radioactive, luminescent (e.g., fluorescent, or phosphorescent), or enzymatic label capable of producing a detectable label, […]
References herein to a “standard in vitro cell adhesion assay” or other similar phrase refer to an assay that includes the above steps a) through c). The detection in step c) can be achieved by a variety of methods such as microscopy (by manually counting cells), particularly confocal microscopy and fluorescence-based photomicroscopy involving FACS; automated cell sorting techniques, immunological methods such as ELISA and RIA; and scintillation counting. […]
A preferred in vitro cell adhesion assay measures polymorphonuclear leukocytes (PMNs and/or monocytes) or platelets and increased endothelial cell adhesion before, during or after contact with a desired GalT-2 enhancing compound. […] Adhering cells are then quantitated by standard methods such as by use of a fluorescence plate reader. […]

Row | SMILES | effect on proliferation of vascular cells [1] | effect on GlcT-1 [2] | effect on GalT-2 activity [3] | effect on proliferation in LacCer-responsive cells [4] | effect on adhesion in LacCer-responsive cells [5]
1 | CCCCCCCCCC(=O)NC(CN1CCOCC1)C(O)c1ccccc1 [D-PDMP, 1-phenyl-2-decanolylamino-3-morpholino-1-propanol] | reduces proliferation of vascular cells | inhibits GlcT-1 |  |  | 
2 | CCCCCCCCCC(=O)N[C@@H](CN1CCOCC1)C(O)c1ccccc1 (stereo partly drawn) [L-PDMP, L-1-phenyl-2-decanoylamino-3-morpholino-1-propanol] |  |  | increase the activity of GalT-2; also recorded: effectively stimulating GalT-2 | increasing proliferation | increasing proliferation and adhesion
